Columns and labels:
[1] = molecular target: T1, calmodulin (Bos taurus, UniProt P62157); assay: Anti-calmodulin activity assay: calmodulin-induced PFK inactivation; format: biochemical, bovine; conditions: drug 20 M
T1 construct: Calmodulin from bovine brain was purified to homogeneity using Phenyl-Sepharose (Pharmacia) chromatography; from tissue; host or cells: bovine brain
Description: The numerous antimitotic drugs already developed and therapeu- tically used for a large number of pathologies belong to different classes based on their chemical structure and other distinctive features. Antimitotic drugs usually target the tubulin/microtubule network of the cytoskeleton that is formed by assembly of cyto- plasmic tubulin dimers. The stability of the different microtubular structures varies considerably; some of their functions depend on their lability. The lability is augmented by the extreme sensitivity to various drugs. Several synthetic and natural compounds interact specifically with tubulin and/or microtubule, fundamentally destroying its dynamic character and leading to cell death. […] Because of their extensive clinical use, it is important to synthesize additional agents having at least the same biological activity. […] Nevertheless, it is unclear yet how the anti-calmodulin activity of these drugs is related to their desired and undesired pharmacological effects. […] The synthesis of the KAR derivatives are presented. […] Taxol, GTP and trifluoperazine were purchased from Sigma. All organic reagents for synthesis of the new compounds were obtained from Aldrich and were of the highest grade. All other chemicals were reagent grade commercial preparations. […] Tubulin was stored in 1 M sucrose, 10 mM sodium phosphate buffer, 0.5 mM magnesium chloride and 0.1 mM GTP, pH 7.0, at -80C and dialysed against the appropriate buffer before use. […] PFK, aldolase and glycerol-3-phosphate dehydrogenase- triosephosphate isomerase purified from rabbit skeletal muscle were purchased in ammonium sulphate suspensions from Sigma or Boehringer. The enzyme suspensions were centrifuged at 10 000g for 5 min. The pellets were suspended in the appropriate buffer, then the enzymes were gel filtered or dialysed in the same buffer to remove ammonium sulphate. […] (Figure 1B; R1 , CH3; R2 , CH2 CH2 Cl). […] After 2 h incubation at room temperature, 200 ml dried toluene was added to the reaction mixture. […] The mixture was stirred for 30 min. After separation of the organic phase, it was washed with water (3 x 30 ml) and dried with potassium sulphate and evaporated on a water bath of 35-40C at 20-27 hPa. The resulting material was chromatographed on silica gel (500 g, bead size of 0.040- 0.063 mm) column (30 mm x 500 mm) using ethyl acetate/ethanol (9:1) mixture as eluent. […] The mixture was kept for 4 h at room temperature and then evaporated on a water bath at 40C under a vacuum of 80 hPa to a final volume of 5-6 ml. […] (Figure 1B, R1 , CHO; R2 , CH2 CH2 Cl). […] Synthesis of KAR-4 [3-allyl-2,4-dioxo-3,5-spiro-oxazolidino- 4-deacetoxy-vinblastine] (Figure 1B; R1 , CH3; R2 , CH2 CH=CH2 ). […] NMR measurements were carried out on a Varian Unity plus-500 instrument (500 MHz for 1H and 125 MHz for 13C) in DMSO. Chemical shifts were determined relative to dTMS = 0.00 p.p.m. 1H and 13C signal assignments were verified by a concerted use of two-dimensional 1H-1H and 1H-13C shift correlation methods (DQFCOSY, HSQC, HMBC) and NOESY experiments. The gradient-enhanced DQFCOSY, HSQC, HMBC and NOESY experiments were recorded by using the standard spectrometer software package. A mixing time of tmix = 0.5 s was used for the NOESY experiments. […] Mass spectrum was recorded on a Kratos MS 80 instrument using FAB.

[2] = system: Mouse leukaemia P388 cells; parameters: method as in Orosz et al (1997a); conditions: P388, single doses i.p.; data published also in ref Orosz et al (1997a); cited from earlier work
[3] = system: Human neuroblastoma cell line (SH-SY5Y); assay: Microculture tetrazolium assay (MTA), cytotoxicity; conditions: read-out: Cytotoxicity MTA IC50, 4-day treatment, MTT
Description: The numerous antimitotic drugs already developed and therapeu- tically used for a large number of pathologies belong to different classes based on their chemical structure and other distinctive features. Antimitotic drugs usually target the tubulin/microtubule network of the cytoskeleton that is formed by assembly of cyto- plasmic tubulin dimers. The stability of the different microtubular structures varies considerably; some of their functions depend on their lability. The lability is augmented by the extreme sensitivity to various drugs. Several synthetic and natural compounds interact specifically with tubulin and/or microtubule, fundamentally destroying its dynamic character and leading to cell death. […] Because of their extensive clinical use, it is important to synthesize additional agents having at least the same biological activity. […] Nevertheless, it is unclear yet how the anti-calmodulin activity of these drugs is related to their desired and undesired pharmacological effects. […] The synthesis of the KAR derivatives are presented. […] Taxol, GTP and trifluoperazine were purchased from Sigma. All organic reagents for synthesis of the new compounds were obtained from Aldrich and were of the highest grade. All other chemicals were reagent grade commercial preparations. […] Tubulin was stored in 1 M sucrose, 10 mM sodium phosphate buffer, 0.5 mM magnesium chloride and 0.1 mM GTP, pH 7.0, at -80C and dialysed against the appropriate buffer before use. […] PFK, aldolase and glycerol-3-phosphate dehydrogenase- triosephosphate isomerase purified from rabbit skeletal muscle were purchased in ammonium sulphate suspensions from Sigma or Boehringer. The enzyme suspensions were centrifuged at 10 000g for 5 min. The pellets were suspended in the appropriate buffer, then the enzymes were gel filtered or dialysed in the same buffer to remove ammonium sulphate. […] (Figure 1B; R1 , CH3; R2 , CH2 CH2 Cl). […] After 2 h incubation at room temperature, 200 ml dried toluene was added to the reaction mixture. […] The mixture was stirred for 30 min. After separation of the organic phase, it was washed with water (3 x 30 ml) and dried with potassium sulphate and evaporated on a water bath of 35-40C at 20-27 hPa. The resulting material was chromatographed on silica gel (500 g, bead size of 0.040- 0.063 mm) column (30 mm x 500 mm) using ethyl acetate/ethanol (9:1) mixture as eluent. […] The mixture was kept for 4 h at room temperature and then evaporated on a water bath at 40C under a vacuum of 80 hPa to a final volume of 5-6 ml. […] (Figure 1B, R1 , CHO; R2 , CH2 CH2 Cl). […] Synthesis of KAR-4 [3-allyl-2,4-dioxo-3,5-spiro-oxazolidino- 4-deacetoxy-vinblastine] (Figure 1B; R1 , CH3; R2 , CH2 CH=CH2 ). […] NMR measurements were carried out on a Varian Unity plus-500 instrument (500 MHz for 1H and 125 MHz for 13C) in DMSO. Chemical shifts were determined relative to dTMS = 0.00 p.p.m. 1H and 13C signal assignments were verified by a concerted use of two-dimensional 1H-1H and 1H-13C shift correlation methods (DQFCOSY, HSQC, HMBC) and NOESY experiments. The gradient-enhanced DQFCOSY, HSQC, HMBC and NOESY experiments were recorded by using the standard spectrometer software package. A mixing time of tmix = 0.5 s was used for the NOESY experiments.

Compound: CC[C@]1(O)C[C@@H]2CN(CCc3c([nH]c4ccccc34)[C@@](C(=O)OC)(c3cc4c(cc3OC)N(C)[C@@H]3[C@]45CCN4CC=C[C@@](CC)(C[C@@]36OC(=O)N(CCCl)C6=O)[C@H]45)C2)C1 [KAR-2, 3′-(β-chloroethyl)-2′,4′-dioxo-3,5′-spiro-oxazolidino-4-deacetoxy-vinblastine]
- Effect on calmodulin induced PFK inactivation: Activity (U mg-1) ([1]; PFK 1.2 M protomers, calmodulin 3 M, 60 min, without calmodulin 66.6 U mg-1, with calmodulin 8.0 U mg-1): 11.1 U mg-1
- anti-calmodulin activity in the PFK assay (in words) [1]: does not display anti-calmodulin activity
- Anti-calmodulin activity: Efficiency (%) ([1]; calculated from the activity data (100% = PFK without calmodulin, 0% = PFK with calmodulin)): 5%
- Dose (mg kg-1) giving the maximal effect [2]: 60 mg/kg
- Maximal effect T/C (%) [2]: 207%
- IC50 [3]: 310 nM

Reference: article PMC2362735, “New semisynthetic vinca alkaloids: chemical, biochemical and cellular studies” (British Journal of Cancer, 1999)
